# In paper PMC12006963, “Application of Deuterium in an M1 Positive Allosteric Modulator Back-Up Program: The Discovery of VU6045422” (ACS Chemical Neuroscience, 2025):
# Assays:
# Format in all cases: in vitro ADME
# CYP 1A2 = molecular target: T1, CYP 1A2 (Homo sapiens, UniProt P05177); assay: CYP inhibition 1A2
# T1 sequence (P05177 1-516): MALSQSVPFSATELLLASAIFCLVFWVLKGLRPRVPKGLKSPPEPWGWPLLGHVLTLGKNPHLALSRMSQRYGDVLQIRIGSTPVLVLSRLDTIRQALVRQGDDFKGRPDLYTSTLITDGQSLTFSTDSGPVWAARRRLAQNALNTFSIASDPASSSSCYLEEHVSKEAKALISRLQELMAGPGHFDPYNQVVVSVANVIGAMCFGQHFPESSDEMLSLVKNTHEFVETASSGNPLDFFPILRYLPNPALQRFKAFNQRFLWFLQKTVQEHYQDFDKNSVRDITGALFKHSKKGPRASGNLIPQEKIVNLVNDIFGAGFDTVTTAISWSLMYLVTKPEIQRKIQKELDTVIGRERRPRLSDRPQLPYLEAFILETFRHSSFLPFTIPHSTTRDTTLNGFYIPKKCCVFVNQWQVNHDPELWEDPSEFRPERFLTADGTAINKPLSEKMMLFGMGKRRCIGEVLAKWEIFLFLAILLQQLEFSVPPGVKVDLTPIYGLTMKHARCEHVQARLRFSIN
# Excerpt: Table 1 Pharmacology and In Vitro DMPK Profiles of M1 PAMs 1, 3, and 5 | column: 1; 3; 5
# Brain homogenate binding = details: pH 7.4; rat brain homogenate; read-out: fu,brain
# Method: Plasma protein binding and Brain homogenate binding: Determination of fraction unbound (f u) in plasma was conducted in vitro via equilibrium dialysis using HTDialysis (HTD) membrane plates. The top half of the plate was filled with 100 uL of Dubelco’s Phosphate Buffered Saline, pH 7.4 (DPBS). Compounds were diluted into plasma from each species (5 µM final concentration), which was aliquoted in triplicate to the ‘bottom half’ of the prepared HTD plate wells. The HTD plate was sealed and incubated for 6 hours at 37 °C. Following incubation, each well (both top and bottom halves) were transferred (20 µL) to the corresponding wells of a 96-shallow-well (V-bottom) plate. The daughter plates were then matrix-matched (DPBS side wells received equal volume of plasma, and plasma side wells received equal volume of DPBS), and extraction solution (120 µL; acetonitrile containing 50 nM carbamazepine as IS) was added to all wells of both daughter plates to precipitate protein and extract test article. The plates were then sealed and centrifuged (3500 rcf) for 10 minutes at ambient temperature. […]
# The unbound fraction (f u) was calculated following the equation below, and mean values for each species were calculated from 3 replicates.
# A similar approach was used to determine the degree of brain homogenate binding, which employed the same methodology and procedure with the following modifications: 1) a final compound concentration of 1 μM was used, 2) naïve rat brains were homogenized in DPBS (1:3 composition of brain: DPBS, w/w) using a Mini-Bead Beater™ machine in order to obtain brain homogenate, which was then treated in the same manner as the plasma samples in the previously described plasma protein binding assay. Fraction unbound for both plasma and brain samples was determined using Equation 4. […]
# The diluted fraction unbound (fu2) in brain was calculated in the same manner by using brain homogenate rather than plasma. Undiluted fraction unbound for the brain was calculated using […]
# [1] = Hepatocyte metabolite identification (dog); details: dog hepatocytes, 4 h incubation
# Method: Prior to full characterization of deuterated analogues 3 and 5, they were incubated in rat, dog, monkey, and human hepatocytes, along with 1, to determine the amount of parent remaining, as well as the degree of undesired oxidative metabolites 2, 4, and 6 (Figure 2). […] For the gem-dideutero congener 3, metabolic stability was improved in vitro. […] Thus, in hepatocytes in vitro, the kinetic isotope effect engendered greater metabolic stability of the labile hot spot on the lactam. It remained to be seen if this effect would translate in vivo, but we first had to assess the impact of the deuterated analogues on molecular pharmacology, in vitro DMPK, standard low-dose in vivo DMPK and, if warranted, in vivo efficacy in a rat novel object recognition (NOR) behavioral assay.
Structure (SMILES),IC50 (CYP 1A2) [µM],"fraction unbound at 6 h, 1 µM (Brain homogenate binding)","% Total Peak Area, parent remaining [1] [%]"
Cn1cc2c(-c3cc(F)c(CN4Cc5ncccc5C4=O)c(F)c3)cccc2n1 [compound 1],14.2,0.04,71.7
[2H]C1([2H])c2ncccc2C(=O)N1Cc1c(F)cc(-c2cccc3nn(C)cc23)cc1F [compound 3],> 30,0.031,91.9
[2H]C1([2H])c2ncccc2C(=O)N1Cc1c(F)cc(-c2cccc3nn(C([2H])([2H])[2H])cc23)cc1F [compound 5],> 30,0.036,87.8
